In assay [1] the target is T1, Carbonic anhydrase 12 (Homo sapiens, UniProt O43570). Nature of the assay: Inhibition of human recombinant carbonic anhydrase 12 preincubated for 15 mins at room temperature/6 hrs at 4 deg C by stopped-flow CO2 hydration assay.
In another assay the target is Carbonic anhydrase 7 (Homo sapiens, UniProt P43166). As to the kind of experiment: Inhibition of human recombinant carbonic anhydrase 7 preincubated for 15 mins at room temperature/6 hrs at 4 deg C by stopped-flow CO2 hydration assay.
Sequence of Carbonic anhydrase 7 (P43166 whole entry): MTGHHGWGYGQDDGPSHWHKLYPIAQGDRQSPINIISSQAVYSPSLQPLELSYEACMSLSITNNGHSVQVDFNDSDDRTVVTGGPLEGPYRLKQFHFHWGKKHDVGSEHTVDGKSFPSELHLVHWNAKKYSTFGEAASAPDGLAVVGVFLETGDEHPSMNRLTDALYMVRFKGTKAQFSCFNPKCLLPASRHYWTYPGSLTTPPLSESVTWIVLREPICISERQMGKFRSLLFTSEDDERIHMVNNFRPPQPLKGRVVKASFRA
Assay [2] deals with T2, Carbonic anhydrase 1 (Homo sapiens, UniProt P00915). Nature of the assay: Inhibition of human recombinant carbonic anhydrase 1 preincubated for 15 mins at room temperature/6 hrs at 4 deg C by stopped-flow CO2 hydration assay.
T2 sequence (P00915 whole entry): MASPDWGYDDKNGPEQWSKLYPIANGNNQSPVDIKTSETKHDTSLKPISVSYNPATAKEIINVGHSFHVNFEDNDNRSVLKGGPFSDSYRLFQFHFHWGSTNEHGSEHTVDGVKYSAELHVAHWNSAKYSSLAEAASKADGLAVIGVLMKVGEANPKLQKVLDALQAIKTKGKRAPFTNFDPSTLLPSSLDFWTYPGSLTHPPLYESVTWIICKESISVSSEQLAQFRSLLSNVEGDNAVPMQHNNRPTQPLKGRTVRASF
The target of assay [3] is T3, Carbonic anhydrase 4 (Homo sapiens, UniProt P22748). Nature of the assay: Inhibition of human recombinant carbonic anhydrase 4 preincubated for 15 mins at room temperature/6 hrs at 4 deg C by stopped-flow CO2 hydration assay.
T3 sequence (P22748 whole entry): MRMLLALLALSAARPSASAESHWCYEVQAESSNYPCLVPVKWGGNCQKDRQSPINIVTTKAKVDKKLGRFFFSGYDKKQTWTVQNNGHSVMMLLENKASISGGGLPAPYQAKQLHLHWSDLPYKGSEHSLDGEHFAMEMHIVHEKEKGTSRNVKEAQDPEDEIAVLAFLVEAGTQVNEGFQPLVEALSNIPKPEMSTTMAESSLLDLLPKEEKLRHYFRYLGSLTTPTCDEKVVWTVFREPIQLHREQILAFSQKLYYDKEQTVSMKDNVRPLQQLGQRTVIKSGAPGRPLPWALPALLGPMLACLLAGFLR
Assay [4] addresses T4, Carbonic anhydrase 2 (Homo sapiens, UniProt P00918). As to the kind of experiment: Inhibition of human recombinant carbonic anhydrase 2 preincubated for 15 mins at room temperature/6 hrs at 4 deg C by stopped-flow CO2 hydration assay.
Assay [5] addresses T1, Carbonic anhydrase 12. Nature of the assay: Inhibition of human recombinant carbonic anhydrase 12.
The target of assay [6] is T2, Carbonic anhydrase 1. Nature of the assay: Inhibition of human recombinant carbonic anhydrase 1.
Assay [7] concerns the target T4, Carbonic anhydrase 2. As to the kind of experiment: Inhibition of human recombinant carbonic anhydrase 2.
Assay [8] concerns the target T3, Carbonic anhydrase 4. Nature of the assay: Inhibition of human recombinant carbonic anhydrase 4.

SMILES strings stand for the structures. pKi: −log10 of the molar value.

T1 sequence (O43570 whole entry): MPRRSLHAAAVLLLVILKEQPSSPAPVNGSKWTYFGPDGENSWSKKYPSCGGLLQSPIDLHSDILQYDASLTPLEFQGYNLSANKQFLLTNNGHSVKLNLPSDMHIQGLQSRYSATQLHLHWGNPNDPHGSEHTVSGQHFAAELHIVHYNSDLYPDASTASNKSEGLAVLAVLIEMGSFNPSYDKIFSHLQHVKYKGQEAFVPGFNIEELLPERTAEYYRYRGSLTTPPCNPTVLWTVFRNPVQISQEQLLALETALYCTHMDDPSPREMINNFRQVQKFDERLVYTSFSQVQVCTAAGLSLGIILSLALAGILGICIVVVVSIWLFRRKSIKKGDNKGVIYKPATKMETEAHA

The term pKi denotes −log10 of the Ki, conventionally taken in molar units. On to `O=C(/C=C/c1ccc(O)cc1)OC[C@H]1O[C@@H](Oc2c(-c3ccc(O)cc3)oc3cc(O)cc(O)c3c2=O)[C@H](OC(=O)/C=C/c2ccc(O)cc2)[C@@H](O)[C@@H]1O`, for which the pKi on Carbonic anhydrase 12 [1] is 6.39; at Carbonic anhydrase 7, 8.33; on Carbonic anhydrase 1 [2] it was less than 5.00; on Carbonic anhydrase 4 [3], 6.46; on Carbonic anhydrase 2 [4] it was 5.06.
The corresponding values for `CC(=O)O[C@@H]1[C@@H](OC(=O)/C=C/c2ccc(O)cc2)[C@H](Oc2c(-c3ccc(O)cc3)oc3cc(O)cc(O)c3c2=O)O[C@H](COC(=O)/C=C/c2ccc(O)cc2)[C@H]1OC(C)=O` are 6.40, 7.58, less than 5.00, 7.21 and 5.16.
On to `O=C1c2c(O)cc(O)cc2O[C@H](c2ccc(O)c(O)c2)[C@H]1O` [(+)-TAXIFOLIN], for which, at Carbonic anhydrase 1 [2], the pKi is less than 5.00.
With `O=c1c(O[C@@H]2O[C@H](CO)[C@@H](O)[C@H](O)[C@H]2O)c(-c2ccc(O)cc2)oc2cc(O)cc(O)c12` [ASTRAGALIN], the pKi is 8.31 on Carbonic anhydrase 12 [1]; 6.37 on Carbonic anhydrase 7; less than 5.00 on Carbonic anhydrase 1 [2]; 5.25 on Carbonic anhydrase 4 [3]; 6.77 at Carbonic anhydrase 2 [4].
The corresponding values for `COc1ccc(-c2coc3cc(O)cc(O)c3c2=O)cc1` [BIOCHANIN] are 7.28, 6.43, less than 5.00, 5.15 and less than 5.00.
In the case of `O=c1cc(-c2ccccc2)oc2cc(O)cc(O)c12` [CHRYSIN], the pKi at Carbonic anhydrase 12 [1] was 7.46; on Carbonic anhydrase 7 it was 6.77; at Carbonic anhydrase 1 [2] it was less than 5.00; at Carbonic anhydrase 4 [3] it was 6.27; at Carbonic anhydrase 2 [4] it was less than 5.00.
Regarding `O=c1c(-c2ccc(O)cc2)coc2cc(O)ccc12` [DAIDZEIN], the pKi at Carbonic anhydrase 12 [1] was 7.25; on Carbonic anhydrase 7, 8.38; at Carbonic anhydrase 1 [2], less than 5.00; at Carbonic anhydrase 4 [3], 6.14; at Carbonic anhydrase 2 [4], less than 5.00.
Regarding `O=C1C[C@@H](c2ccc(O)c(O)c2)Oc2cc(O)cc(O)c21` [ERIODICTYOL], the pKi at Carbonic anhydrase 12 [1] is 7.51; on Carbonic anhydrase 7, 8.37; at Carbonic anhydrase 1 [2] it was less than 5.00; on Carbonic anhydrase 4 [3] it was 7.14; at Carbonic anhydrase 2 [4] it was less than 5.00.
For `O=c1c(O)c(-c2ccccc2)oc2cc(O)cc(O)c12` [GALANGIN], the pKi was 7.38 on Carbonic anhydrase 12 [1]; 7.61 at Carbonic anhydrase 7; less than 5.00 on Carbonic anhydrase 1 [2]; 6.25 at Carbonic anhydrase 4 [3]; less than 5.00 at Carbonic anhydrase 2 [4].
`COc1ccc([C@@H]2CC(=O)c3c(O)cc(O)cc3O2)cc1O` [HESPERETIN]: the pKi is 6.34 at Carbonic anhydrase 12 [1]; 8.48 on Carbonic anhydrase 7; less than 5.00 at Carbonic anhydrase 1 [2]; 6.99 on Carbonic anhydrase 4 [3]; less than 5.00 at Carbonic anhydrase 2 [4].
With `O=c1c(O[C@@H]2O[C@H](CO)[C@@H](O)[C@H](O)[C@H]2O)c(-c2ccc(O)c(O)c2)oc2cc(O)cc(O)c12` [ISOQUERCETIN], the negative-log Ki (pKi) on Carbonic anhydrase 12 [5] was 6.77; at Carbonic anhydrase 12 [1], 7.28; on Carbonic anhydrase 7, 8.42; on Carbonic anhydrase 1 [2], less than 5.00; on Carbonic anhydrase 1 [6] it was less than 5.00; on Carbonic anhydrase 4 [3], 7.12. For the same compound, the pKi on Carbonic anhydrase 2 [4] is 5.21; on Carbonic anhydrase 2 [7], 6.39.
With `COc1cc(-c2oc3cc(O)cc(O)c3c(=O)c2O)ccc1O` [ISORHAMNETIN], the pKi on Carbonic anhydrase 12 [5] is 6.66; on Carbonic anhydrase 12 [1], 7.26; on Carbonic anhydrase 7 it was 8.36; at Carbonic anhydrase 1 [2] it was less than 5.00; at Carbonic anhydrase 1 [6], less than 5.00; on Carbonic anhydrase 4 [3], 6.67. Besides, the values for the pKi at Carbonic anhydrase 2 [4] and at Carbonic anhydrase 2 [7] were less than 5.00 and 6.36, respectively.
Take `O=c1c(O)c(-c2ccc(O)cc2)oc2cc(O)cc(O)c12` [KAEMPFEROL]: the pKi was 6.84 at Carbonic anhydrase 12 [1]; 7.60 at Carbonic anhydrase 7; less than 5.00 on Carbonic anhydrase 1 [2]; less than 5.00 on Carbonic anhydrase 4 [3]; 5.02 at Carbonic anhydrase 2 [4].
Turning to `O=C(/C=C/c1ccc(O)c2c1[C@H](C(=O)O)[C@@H](c1ccc(O)c(O)c1)O2)O[C@H](Cc1ccc(O)c(O)c1)C(=O)O` [LITHOSPERMIC ACID], the pKi on Carbonic anhydrase 7 was 6.57; at Carbonic anhydrase 1 [2], less than 5.00; on Carbonic anhydrase 4 [3], 6.99; at Carbonic anhydrase 2 [4] it was less than 5.00.
As to `O=c1cc(-c2ccc(O)c(O)c2)oc2cc(O)cc(O)c12` [LUTEOLIN], the pKi at Carbonic anhydrase 12 [1] is 7.22; on Carbonic anhydrase 7, 8.33; at Carbonic anhydrase 1 [2], less than 5.00; on Carbonic anhydrase 2 [4], 5.43; on Carbonic anhydrase 4 [8], 6.53.
Turning to `O=C1C[C@@H](c2ccc(O)cc2)Oc2cc(O)cc(O)c21` [NARINGENIN], the pKi at Carbonic anhydrase 12 [1] is 7.35; on Carbonic anhydrase 7, 8.37; at Carbonic anhydrase 1 [2], less than 5.00; on Carbonic anhydrase 4 [3], 7.10; at Carbonic anhydrase 2 [4], less than 5.00.
As for `O=c1c(-c2ccc(O)cc2)coc2c([C@@H]3O[C@H](CO)[C@@H](O)[C@H](O)[C@H]3O)c(O)ccc12` [PUERARIN], the pKi is 6.34 on Carbonic anhydrase 7, less than 5.00 at Carbonic anhydrase 1 [2], less than 5.00 at Carbonic anhydrase 4 [3] and less than 5.00 at Carbonic anhydrase 2 [4].
With `C[C@@H]1O[C@@H](Oc2c(-c3ccc(O)c(O)c3)oc3cc(O)cc(O)c3c2=O)[C@H](O)[C@H](O)[C@H]1O` [QUERCETIN-3-O-RHAMNOSIDE], the pKi on Carbonic anhydrase 12 [1] is 7.36; on Carbonic anhydrase 7 it was 8.41; on Carbonic anhydrase 1 [2], less than 5.00; on Carbonic anhydrase 4 [3], 7.17; at Carbonic anhydrase 2 [4], 5.20.
On to `O=C(/C=C/c1ccc(O)c(O)c1/C=C/c1ccc(O)c(O)c1)O[C@H](Cc1ccc(O)c(O)c1)C(=O)O` [SALVIANOLIC ACID A], for which the pKi on Carbonic anhydrase 12 [1] is 7.40; at Carbonic anhydrase 7, 7.15; on Carbonic anhydrase 1 [2] it was less than 5.00; at Carbonic anhydrase 4 [3], 7.18; at Carbonic anhydrase 2 [4], 5.02.
The corresponding values for `O=C(/C=C/c1ccc(O)cc1)OC[C@H]1O[C@@H](Oc2c(-c3ccc(O)cc3)oc3cc(O)cc(O)c3c2=O)[C@H](O)[C@@H](O)[C@@H]1O` [TILIROSIDE] are 6.87, 8.34, less than 5.00, 5.26 and less than 5.00.

The record behind these values is ChEMBL document CHEMBL3627624, “New natural product carbonic anhydrase inhibitors incorporating phenol moieties” (Bioorg Med Chem, 2015).
